From US20110166123A1, “NOVEL COMPOSITIONS AND METHODS OF USE” (priority 2008, published 2011)
pEC50: −log10 of the molar value.

What follows are compounds tested on human immunodeficiency virus type 1 (HIV-1) (assay: microbe, parasite or virus in culture). Conditions: Human immunodeficiency virus 1, HeLa, 48 h, HIV-1 luciferase reporter, HeLa cells, 48 hours after infection.
Type: cell-based

First: CC(C)[C@@H](CO)n1cc(C(=O)O)c(=O)c2cc(Nc3cccc(Cl)c3F)ncc21 [Example 16A, (S)-6-(3-chloro-2-fluorophenylamino)-1-(1-hydroxy-3-methylbutan-2-yl)-4-oxo-1,4-dihydro-1,7-naphthyridine-3-carboxylic acid]
Second: CC(C)[C@@H](CO)n1cc(C(=O)O)c(=O)c2cc(Cc3ccc(Cl)c(Cl)c3)ncc21 [Example 5Q]
The pEC50 of the first is lower: less than 7.00 for the first, 7.00 to 8.00 for the second. The second is the more potent here.

`CC(C)(C)[C@@H](CO)n1cc(C(=O)O)c(=O)c2cc(NCc3c(F)cc(F)cc3F)c(Cl)cc21` [Example 26D, (S)-7-chloro-1-(1-hydroxy-3,3-dimethylbutan-2-yl)-4-oxo-6-(2,4,6-trifluorobenzylamino)-1,4-dihydroquinoline-3-carboxylic acid] and `CC(C)[C@@H](CO)n1cc(C(=O)O)c(=O)c2cc(NCc3c(F)cc(F)cc3F)ccc21` [Example 22C, (S)-1-(1-hydroxy-3-methylbutan-2-yl)-4-oxo-6-(2,4,6-trifluorobenzylamino)-1,4-dihydroquinoline-3-carboxylic acid] fall in the same range of pEC50: 7.00 to 8.00 for the first, 7.00 to 8.00 for the second.

Compared with `CC(C)(C)[C@@H](CO)n1cc(C(=O)O)c(=O)c2cc(Cc3cccc(Cl)c3F)c(OCCCO)nc21` [Example 2F], `CC(C)Oc1nc2c(cc1Cc1cccc(Cl)c1F)c(=O)c(C(=O)O)cn2[C@H](CO)C(C)(C)C` [Example 2D] is lower in pEC50: greater than 8.00 for the first, 7.00 to 8.00 for the second. The first is the more potent here.

`COc1nc2c(cc1CNc1c(F)cc(F)cc1F)c(=O)c(C(=O)O)cn2[C@H](CO)C(C)C` [Example 12A, (S)-1-(1-hydroxy-3-methylbutan-2-yl)-7-methoxy-4-oxo-6-((2,4,6-trifluorophenylamino)methyl)-1,4-dihydro-1,8-naphthyridine-3-carboxylic acid] and `COc1nc2c(cc1CNCc1c(F)cc(F)cc1F)c(=O)c(C(=O)O)cn2[C@H](CO)C(C)C` [Example 12G] cannot be ordered by pEC50: less than 7.00 for the first, less than 7.00 for the second.

Compared with `COc1nc2c(cc1Cc1cccc(Cl)c1F)c(=O)c(C(=O)O)cn2[C@@H](CO)C(C)C` [Example 1C], `CCC(C)[C@@H](CO)n1cc(C(=O)O)c(=O)c2cc(Cc3cccc(Cl)c3F)c(OC)nc21` (some centres unmarked) [Example 1G] is higher in pEC50: 7.00 to 8.00 for the first, greater than 8.00 for the second.

`COc1ccc(-c2cc3c(=O)c(C(=O)O)cn([C@H](CO)C(C)C)c3nc2OC)cn1` [Example 17H] and `COc1nc2c(cc1-c1ccc(F)c(Cl)c1)c(=O)c(C(=O)O)cn2[C@H](CO)C(C)C` [Example 17D] cannot be ordered by pEC50: less than 7.00 for the first, less than 7.00 for the second.

First: COc1cc2c(cc1NCc1c(F)cccc1F)c(=O)c(C(=O)O)cn2[C@H](CO)C(C)C [Example 21C, (S)-6-(2,6-difluorobenzylamino)-1-(1-hydroxy-3-methylbutan-2-yl)-7-methoxy-4-oxo-1,4-dihydroquinoline-3-carboxylic acid]
Second: CC(C)[C@@H](CO)n1cc(C(=O)O)c(=O)c2cc(Cc3ccc(F)c(F)c3)ncc21 [Example 5B, 6-(3,4-Difluoro-benzyl)-1-((S)-1-hydroxymethyl-2-methyl-propyl)-4-oxo-1,4-dihydro-[1,7]naphthyridine-3-carboxylic acid]
The pEC50 of the first is higher: 7.00 to 8.00 for the first, less than 7.00 for the second.

`CC(C)(C)[C@@H](CO)n1cc(C(=O)O)c(=O)c2cc(NCc3ccc(F)cc3)ccc21` [Example 22B, (S)-6-(4-fluorobenzylamino)-1-(1-hydroxy-3,3-dimethylbutan-2-yl)-4-oxo-1,4-dihydroquinoline-3-carboxylic acid] and `COCCOc1cc2c(cc1NCc1ccc(F)cc1)c(=O)c(C(=O)O)cn2[C@H](CO)C(C)(C)C` [Example 27C, (S)-6-(4-fluorobenzylamino)-1-(1-hydroxy-3,3-dimethylbutan-2-yl)-7-(2-methoxyethoxy)-4-oxo-1,4-dihydroquinoline-3-carboxylic acid] fall in the same range of pEC50: 7.00 to 8.00 for the first, 7.00 to 8.00 for the second.

`CC(C)[C@@H](CO)n1cc(C(=O)O)c(=O)c2cc(Cc3ccccc3)cnc21` [Example 4C] and `COc1nc2c(cc1-c1ccccc1OCc1ccccc1)c(=O)c(C(=O)O)cn2[C@H](CO)C(C)C` [Example 17K] cannot be ordered by pEC50: less than 7.00 for the first, less than 7.00 for the second.

Compared with `CC(C)(C)[C@@H](CO)n1cc(C(=O)O)c(=O)c2cc(Cc3cccc(Cl)c3F)c(N3CCOCC3)nc21` [Example 2A, (S)-6-(3-chloro-2-fluorobenzyl)-7-morpholin-1-(1-hydroxy-3,3-dimethylbutan-2-yl)-4-oxo-1,4-dihydro-1,8-naphthyridine-3-carboxylic acid], `CC(C)(C)[C@@H](CO)n1cc(C(=O)O)c(=O)c2cc(Cc3cccc(Cl)c3F)c(N3CCC(CO)CC3)nc21` [Example 2Y] is lower in pEC50: greater than 8.00 for the first, 7.00 to 8.00 for the second.

`O=C(O)c1c[nH]c2cnc(Cc3cccc(Cl)c3)nc2c1=O` [Example 10A, 2-(3-chlorobenzyl)-8-oxo-5,8-dihydropyrido[3,2-d]pyrimidine-7-carboxylic acid] and `O=C(O)c1cn(C[C@H](O)c2ccccc2)c2cnc(Cc3cccc(Cl)c3F)cc2c1=O` [Example 5O] cannot be ordered by pEC50: less than 7.00 for the first, less than 7.00 for the second.

`CN(C)c1nc2c(cc1Cc1cccc(Cl)c1F)c(=O)c(C(=O)O)cn2[C@H](CO)C(C)(C)C` [Example 2P] and `CC(C)[C@@H](CO)n1cc(C(=O)O)c(=O)c2cc(Cc3cccc(Cl)c3F)c(F)nc21` [Example 2KK] fall in the same range of pEC50: 7.00 to 8.00 for the first, 7.00 to 8.00 for the second.

`COc1nc2c(cc1NCc1ccc(F)cc1)c(=O)c(C(=O)O)cn2[C@H](CO)C(C)C` [Example 20C, (S)-6-(4-fluorobenzylamino)-1-(1-hydroxy-3-methylbutan-2-yl)-7-methoxy-4-oxo-1,4-dihydro-1,8-naphthyridine-3-carboxylic acid] and `COc1nc2c(cc1Cc1ccc(F)cc1F)c(=O)c(C(=O)O)cn2[C@H](CO)C(C)C` [Example 1E] fall in the same range of pEC50: 7.00 to 8.00 for the first, 7.00 to 8.00 for the second.

Going from `O=C(O)c1cn([C@@H](CO)c2ccccc2)c2cnc(Cc3cccc(Cl)c3F)cc2c1=O` [Example 5P] to `COc1nc2c(cc1Cc1cccc(Cl)c1F)c(=O)c(C(=O)O)cn2[C@H](CO)CC(C)C` [Example 1K], the pEC50 rises from less than 7.00 to greater than 8.00.

`COc1cc2c(cc1Oc1ccc(C(F)(F)F)cc1N)c(=O)c(C(=O)O)cn2[C@H](CO)C(C)(C)C` [Example 29G] and `COc1ccc(COc2cc3c(=O)c(C(=O)O)cn([C@H](CO)C(C)(C)C)c3cc2OC)cc1` [Example 29E, (S)-1-(1-hydroxy-3,3-dimethylbutan-2-yl)-7-methoxy-6-(4-methoxybenzyloxy)-4-oxo-1,4-dihydroquinoline-3-carboxylic acid] cannot be ordered by pEC50: less than 7.00 for the first, less than 7.00 for the second.

`COc1nc2c(cc1-c1ccc(Cl)c(F)c1)c(=O)c(C(=O)O)cn2[C@H](CO)C(C)C` [Example 17B] and `COc1nc2c(cc1NCc1cc(F)c(F)cc1F)c(=O)c(C(=O)O)cn2[C@H](CO)C(C)C` [Example 20II, (S)-1-(1-hydroxy-3-methylbutan-2-yl)-7-methoxy-4-oxo-6-(2,4,5-trifluorobenzylamino)-1,4-dihydro-1,8-naphthyridine-3-carboxylic acid] cannot be ordered by pEC50: less than 7.00 for the first, less than 7.00 for the second.

`COc1nc2c(cc1Cc1cccc(Cl)c1F)c(=O)c(C(=O)O)cn2C1CCOCC1` [Example 1N] and `COc1nc2c(cc1CN1CCc3ccccc3C1)c(=O)c(C(=O)O)cn2[C@H](CO)C(C)C` [Example 12H] cannot be ordered by pEC50: less than 7.00 for the first, less than 7.00 for the second.

Work on `CC(C)[C@@H](CO)n1cc(C(=O)O)c(=O)c2cc(OCc3ccc(F)cc3)ccc21` [Example 23A, (S)-6-(4-fluorobenzyloxy)-1-(1-hydroxy-3-methylbutan-2-yl)-4-oxo-1,4-dihydroquinoline-3-carboxylic acid] yielded a pEC50 of less than 7.00.
